Measurements reported in ChEMBL document CHEMBL5518182, “Discovery and development of BI 1265162, an ENaC inhibitor for the treatment of cystic fibrosis” (Eur J Med Chem, 2024).
The source made the active and inactive calls. No cut-off for these calls is given here.

Legend:
Rattus norvegicus [1] = assay: Effect on Han Wistar rat model of lung fluid absorption at ED70 administered intratracheally measured after 20 hrs; format: functional; details: route it(Intratracheal)
[2] = Genotoxicity in Salmonella typhimurium TA1535 incubated for 48 hrs in presence of rat liver S9 fraction by Ames test; format: toxicity, subcellular; details: salmonella enterica subsp. enterica serovar typhimurium, s9, 48 h
[3] = Metabolic stability in rat liver microsomes assessed as liver blood flow at 1 uM by LC-MS/MS analysis; format: ADME, Microsome; details: read-out: QH
[4] = Drug uptake in Han Wistar rat lung at 10 ug/kg, IT(Intratracheal) measured after 3 hrs by HPLC-TMS analysis; format: ADME, tissue-based; details: in vivo, inhaled_or_intranasal, 0.01 mg/kg, dose 10 µg/kg
Cytochrome P450 1A2 = target: T1, Cytochrome P450 1A2 (Homo sapiens, UniProt P05177); assay: Inhibition of CYP1A2 in human liver microsomes in presence of NADPH by LC-MS/MS analysis; format: ADME, Microsome
T1 sequence (P05177 whole entry): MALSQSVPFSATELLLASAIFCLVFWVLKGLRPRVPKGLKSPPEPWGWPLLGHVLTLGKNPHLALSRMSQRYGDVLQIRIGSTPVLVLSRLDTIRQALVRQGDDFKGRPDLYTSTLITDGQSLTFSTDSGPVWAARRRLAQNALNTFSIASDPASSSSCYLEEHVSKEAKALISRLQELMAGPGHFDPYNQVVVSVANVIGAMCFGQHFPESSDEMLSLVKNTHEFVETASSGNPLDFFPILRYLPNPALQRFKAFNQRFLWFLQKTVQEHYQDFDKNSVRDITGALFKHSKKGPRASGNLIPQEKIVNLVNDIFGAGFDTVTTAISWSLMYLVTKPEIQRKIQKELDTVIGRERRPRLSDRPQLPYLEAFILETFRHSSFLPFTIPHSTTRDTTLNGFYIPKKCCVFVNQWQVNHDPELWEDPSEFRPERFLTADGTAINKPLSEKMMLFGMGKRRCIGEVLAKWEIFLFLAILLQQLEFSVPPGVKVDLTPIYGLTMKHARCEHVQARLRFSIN

Rattus norvegicus [5] = assay: Acute effect on Han Wistar rat model of lung fluid absorption administered intratracheally measured after 3 hrs; format: functional; details: route it(Intratracheal)
[6] = Cytotoxicity against rat hepatocytes by LDH assay; format: toxicity, cell-based, Hepatocyte
[7] = MRT in Han Wistar rat; format: ADME; details: in vivo
Lung [8] = assay: Inhibition of lung water resorption in Wistar rat at 3 ug/kg, IT(Intratracheal) incubated for 3 hrs relative to control; format: functional
[9] = Permeability across apical to basal side in human Caco-2 cells by LC-MS/MS analysis; format: ADME, cell-based; details: read-out: permeability
M1 cell = assay: Inhibition of ENaC-mediated water resorption in mouse M1 cells at 3 uM by radiometric dilution assay relative to control; format: cell-based
[10] = Metabolic stability in human hepatocytes assessed as liver blood flow at 1 uM incubated for 6 hrs by HPLC-MS/MS analysis; format: ADME, cell-based, Hepatocyte; details: read-out: QH
Rattus norvegicus [11] = assay: Upregulation of serum aldosterone level in Han Wistar rat model of lung fluid absorption at 3 ug/kg, IT(Intratracheal) measured after 3 hrs relative to control; format: functional; details: dose 3 µg/kg
[12] = Permeability of compound by PAMPA assay; format: ADME; details: read-out: permeability
[13] = Genotoxicity in Salmonella typhimurium TA98 incubated for 48 hrs in presence of rat liver S9 fraction by Ames test; format: toxicity, subcellular; details: salmonella enterica subsp. enterica serovar typhimurium, s9, 48 h
[14] = Genotoxicity in Escherichia coli WP2 uvrA (pKM 101) incubated for 48 hrs in presence of rat liver S9 fraction by Ames test; format: toxicity, subcellular; details: s9, 48 h
Cytochrome P450 2C19 = Cytochrome P450 2C19 (Homo sapiens, UniProt P33261); assay: Inhibition of CYP2C19 in human liver microsomes using (S)-mephenytoin as substrate in presence of NADPH by LC-MS/MS analysis; format: ADME, Microsome
Rattus norvegicus [15] = species: Rattus norvegicus; assay: Upregulation of serum potassium level in Han Wistar rat; format: functional, organism-based
Lung [16] = assay: Inhibition of lung water resorption in Wistar rat at 0.3 ug/kg, IT(Intratracheal) incubated for 3 hrs relative to control; format: functional
Cytochrome P450 2C9 = Cytochrome P450 2C9 (Homo sapiens, UniProt P11712); assay: Inhibition of CYP2C9 in human liver microsomes using diclofenac as substrate in presence of NADPH by LC-MS/MS analysis; format: ADME, Microsome
[17] = Cytotoxicity against human U-937 cells by MTT assay; format: toxicity, cell-based
[18] = Metabolic stability in rat hepatocytes assessed as liver blood flow at 1 uM incubated for 6 hrs by HPLC-MS/MS analysis; format: ADME, cell-based, Hepatocyte; details: read-out: QH
[19] = Solubility of compound at pH 5; format: physicochemical; details: buffer
Cytochrome P450 3A4 = Cytochrome P450 3A4 (Homo sapiens, UniProt P08684); assay: Inhibition of CYP3A4 in human liver microsomes using midazolam as substrate in presence of NADPH by LC-MS/MS analysis; format: ADME, Microsome
[20] = Permeability across basal to apical side in human Calu-3 cells at 0.1 to 300 uM measured upto 2 hrs by HPLC-MS/MS analysis; format: ADME, cell-based; details: dose 0.1-300 µM, read-out: permeability
[21] = Inhibition of ENaC in mouse M1 cells upto 10 uM by chamber assay; format: cell-based; details: m1 cell
[22] = Cytotoxicity against human 16HBE14o- cells by plasma damage based analysis; format: toxicity, cell-based
[23] = Metabolic stability in human liver microsomes assessed as liver blood flow at 1 uM by LC-MS/MS analysis; format: ADME, Microsome; details: read-out: QH
[24] = Clearance in Han Wistar rat assessed as liver blood flow at 0.5 umol/kg; format: ADME, tissue-based; details: in vivo, at 0.5 µmol/kg
[25] = Genotoxicity in Salmonella typhimurium TA100 incubated for 48 hrs in presence of rat liver S9 fraction by Ames test; format: toxicity, subcellular; details: salmonella enterica subsp. enterica serovar typhimurium, s9, 48 h
Cytochrome P450 2D6 = Cytochrome P450 2D6 (Homo sapiens, UniProt P10635); assay: Inhibition of CYP2D6 in human liver microsomes using dextromethorphan as substrate in presence of NADPH by LC-MS/MS analysis; format: ADME, Microsome
[26] = Lipophilicity, logD of compound at pH 7.4; format: physicochemical; details: buffer
[27] = target: Acetylcholinesterase (Homo sapiens) (UniProt P22303); assay: Inhibition of AChE (unknown origin) at 10 uM relative to control
[28] = Genotoxicity in Salmonella typhimurium TA1537 incubated for 48 hrs in presence of rat liver S9 fraction by Ames test; format: toxicity, subcellular; details: salmonella enterica subsp. enterica serovar typhimurium, s9, 48 h
CFTR = CFTR (Homo sapiens, UniProt P13569); assay: Inhibition of CFTR (unknown origin) at 10 uM relative to control; format: toxicity
BK channel = BK channel (Homo sapiens, UniProt Q12791); assay: Inhibition of BK channel (unknown origin) at 10 uM relative to control; format: toxicity
[29] = Drug uptake in Han Wistar rat lung at 8 ug/kg, IT(Intratracheal) measured after 3 hrs by HPLC-TMS analysis; format: ADME, tissue-based; details: in vivo, inhaled_or_intranasal, 0.008 mg/kg, dose 8 µg/kg
CaV3.1 = CaV3.1 (Homo sapiens, UniProt O43497); assay: Inhibition of CaV3.1 (unknown origin) at 10 uM relative to control; format: toxicity
[30] = Oral bioavailability in Han Wistar rat; format: ADME, organism-based; details: in vivo
CaV3.2 = CaV3.2 (Homo sapiens, UniProt O95180); assay: Inhibition of CaV3.2 (unknown origin) at 10 uM relative to control; format: toxicity

Cytochrome P450 2D6, sequence (P10635 whole entry): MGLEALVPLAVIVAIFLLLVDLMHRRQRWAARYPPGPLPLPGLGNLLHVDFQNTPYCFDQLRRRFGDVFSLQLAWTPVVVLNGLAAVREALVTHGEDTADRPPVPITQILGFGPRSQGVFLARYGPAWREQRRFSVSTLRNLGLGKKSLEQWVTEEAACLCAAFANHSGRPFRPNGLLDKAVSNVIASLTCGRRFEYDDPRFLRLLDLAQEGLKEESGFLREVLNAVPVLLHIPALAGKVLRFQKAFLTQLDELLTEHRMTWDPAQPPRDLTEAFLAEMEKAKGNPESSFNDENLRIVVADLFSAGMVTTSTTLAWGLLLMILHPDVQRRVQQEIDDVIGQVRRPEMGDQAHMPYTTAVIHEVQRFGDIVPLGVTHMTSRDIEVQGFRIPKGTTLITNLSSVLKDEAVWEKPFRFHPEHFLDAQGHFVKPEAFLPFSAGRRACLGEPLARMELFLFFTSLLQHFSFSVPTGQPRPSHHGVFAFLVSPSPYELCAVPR
Cytochrome P450 2C9, sequence (P11712 whole entry): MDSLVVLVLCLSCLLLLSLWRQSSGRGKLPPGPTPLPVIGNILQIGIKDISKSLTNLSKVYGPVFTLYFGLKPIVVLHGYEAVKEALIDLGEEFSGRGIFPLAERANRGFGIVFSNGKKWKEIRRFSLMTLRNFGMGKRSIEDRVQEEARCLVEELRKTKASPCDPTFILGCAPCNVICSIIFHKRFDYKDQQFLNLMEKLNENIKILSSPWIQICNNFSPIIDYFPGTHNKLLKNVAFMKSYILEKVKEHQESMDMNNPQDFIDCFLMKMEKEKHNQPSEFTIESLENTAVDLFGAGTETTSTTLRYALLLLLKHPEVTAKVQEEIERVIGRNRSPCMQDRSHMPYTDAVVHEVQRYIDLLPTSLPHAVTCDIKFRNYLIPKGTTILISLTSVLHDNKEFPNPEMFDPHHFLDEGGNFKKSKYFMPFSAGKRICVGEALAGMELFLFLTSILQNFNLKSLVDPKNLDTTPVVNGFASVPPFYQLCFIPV
Cytochrome P450 3A4, sequence (P08684 whole entry): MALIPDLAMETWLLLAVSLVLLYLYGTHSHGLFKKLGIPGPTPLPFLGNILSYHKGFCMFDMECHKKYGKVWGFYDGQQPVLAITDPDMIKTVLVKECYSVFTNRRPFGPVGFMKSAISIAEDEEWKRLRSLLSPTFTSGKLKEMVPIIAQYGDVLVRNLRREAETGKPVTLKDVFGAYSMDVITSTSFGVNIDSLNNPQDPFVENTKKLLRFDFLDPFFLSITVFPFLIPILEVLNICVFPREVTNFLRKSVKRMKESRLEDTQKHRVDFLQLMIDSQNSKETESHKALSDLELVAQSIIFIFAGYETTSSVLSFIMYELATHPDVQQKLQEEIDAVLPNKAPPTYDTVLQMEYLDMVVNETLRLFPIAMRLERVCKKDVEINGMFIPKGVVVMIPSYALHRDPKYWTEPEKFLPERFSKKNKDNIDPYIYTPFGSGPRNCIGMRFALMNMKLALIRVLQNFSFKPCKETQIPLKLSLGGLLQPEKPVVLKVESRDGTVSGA
Cytochrome P450 2C19, sequence (P33261 whole entry): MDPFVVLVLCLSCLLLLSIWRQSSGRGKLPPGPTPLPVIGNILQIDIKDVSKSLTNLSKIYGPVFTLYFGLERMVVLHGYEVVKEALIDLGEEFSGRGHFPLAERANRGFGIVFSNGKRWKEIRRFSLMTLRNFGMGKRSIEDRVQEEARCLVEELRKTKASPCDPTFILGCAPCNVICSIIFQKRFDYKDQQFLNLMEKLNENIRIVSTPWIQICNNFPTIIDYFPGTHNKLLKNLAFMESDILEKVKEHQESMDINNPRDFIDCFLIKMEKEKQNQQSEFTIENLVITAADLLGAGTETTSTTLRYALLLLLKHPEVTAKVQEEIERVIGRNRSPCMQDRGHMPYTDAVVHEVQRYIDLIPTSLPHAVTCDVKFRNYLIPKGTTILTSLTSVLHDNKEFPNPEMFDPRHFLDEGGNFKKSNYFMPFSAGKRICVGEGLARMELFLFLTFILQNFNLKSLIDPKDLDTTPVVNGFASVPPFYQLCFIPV
CFTR, sequence (P13569 whole entry): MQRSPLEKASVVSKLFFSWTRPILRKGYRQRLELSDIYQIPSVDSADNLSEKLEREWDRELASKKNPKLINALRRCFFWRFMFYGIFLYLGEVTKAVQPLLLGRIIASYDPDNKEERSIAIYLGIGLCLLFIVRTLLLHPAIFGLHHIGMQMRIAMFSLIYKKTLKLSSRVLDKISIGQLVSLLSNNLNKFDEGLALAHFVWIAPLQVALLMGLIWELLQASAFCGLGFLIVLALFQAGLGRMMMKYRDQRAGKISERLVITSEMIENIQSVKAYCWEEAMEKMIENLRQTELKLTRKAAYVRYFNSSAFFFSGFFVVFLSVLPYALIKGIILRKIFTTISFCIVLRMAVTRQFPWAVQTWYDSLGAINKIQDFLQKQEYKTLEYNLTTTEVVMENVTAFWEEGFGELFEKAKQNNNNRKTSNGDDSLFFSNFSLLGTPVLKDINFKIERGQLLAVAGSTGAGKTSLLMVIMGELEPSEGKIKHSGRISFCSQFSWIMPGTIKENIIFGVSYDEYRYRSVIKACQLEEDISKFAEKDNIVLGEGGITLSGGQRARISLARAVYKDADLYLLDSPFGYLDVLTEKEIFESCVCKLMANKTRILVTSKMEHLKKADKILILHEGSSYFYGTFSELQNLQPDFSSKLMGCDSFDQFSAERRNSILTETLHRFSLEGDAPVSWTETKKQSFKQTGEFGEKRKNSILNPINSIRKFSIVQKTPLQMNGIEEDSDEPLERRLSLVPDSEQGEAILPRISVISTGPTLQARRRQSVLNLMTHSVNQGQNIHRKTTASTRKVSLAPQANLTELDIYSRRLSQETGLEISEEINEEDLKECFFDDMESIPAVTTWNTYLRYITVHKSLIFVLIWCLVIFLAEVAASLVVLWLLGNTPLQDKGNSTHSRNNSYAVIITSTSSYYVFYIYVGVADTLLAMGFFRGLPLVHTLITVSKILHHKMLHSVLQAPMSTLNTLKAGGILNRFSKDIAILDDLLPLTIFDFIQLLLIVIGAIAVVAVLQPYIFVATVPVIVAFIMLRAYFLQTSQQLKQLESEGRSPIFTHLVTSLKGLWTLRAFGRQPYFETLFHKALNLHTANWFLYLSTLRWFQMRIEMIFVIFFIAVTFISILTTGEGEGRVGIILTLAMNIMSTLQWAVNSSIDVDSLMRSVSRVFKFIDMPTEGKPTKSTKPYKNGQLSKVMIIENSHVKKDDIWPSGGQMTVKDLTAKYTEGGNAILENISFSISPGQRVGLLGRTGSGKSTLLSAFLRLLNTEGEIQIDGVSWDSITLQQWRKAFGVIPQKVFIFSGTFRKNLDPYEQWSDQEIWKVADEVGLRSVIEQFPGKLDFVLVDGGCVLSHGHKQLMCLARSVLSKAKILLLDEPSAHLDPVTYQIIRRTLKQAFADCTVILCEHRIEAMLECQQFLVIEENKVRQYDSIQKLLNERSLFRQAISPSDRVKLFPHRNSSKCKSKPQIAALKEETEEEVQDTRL
BK channel, sequence (Q12791 whole entry): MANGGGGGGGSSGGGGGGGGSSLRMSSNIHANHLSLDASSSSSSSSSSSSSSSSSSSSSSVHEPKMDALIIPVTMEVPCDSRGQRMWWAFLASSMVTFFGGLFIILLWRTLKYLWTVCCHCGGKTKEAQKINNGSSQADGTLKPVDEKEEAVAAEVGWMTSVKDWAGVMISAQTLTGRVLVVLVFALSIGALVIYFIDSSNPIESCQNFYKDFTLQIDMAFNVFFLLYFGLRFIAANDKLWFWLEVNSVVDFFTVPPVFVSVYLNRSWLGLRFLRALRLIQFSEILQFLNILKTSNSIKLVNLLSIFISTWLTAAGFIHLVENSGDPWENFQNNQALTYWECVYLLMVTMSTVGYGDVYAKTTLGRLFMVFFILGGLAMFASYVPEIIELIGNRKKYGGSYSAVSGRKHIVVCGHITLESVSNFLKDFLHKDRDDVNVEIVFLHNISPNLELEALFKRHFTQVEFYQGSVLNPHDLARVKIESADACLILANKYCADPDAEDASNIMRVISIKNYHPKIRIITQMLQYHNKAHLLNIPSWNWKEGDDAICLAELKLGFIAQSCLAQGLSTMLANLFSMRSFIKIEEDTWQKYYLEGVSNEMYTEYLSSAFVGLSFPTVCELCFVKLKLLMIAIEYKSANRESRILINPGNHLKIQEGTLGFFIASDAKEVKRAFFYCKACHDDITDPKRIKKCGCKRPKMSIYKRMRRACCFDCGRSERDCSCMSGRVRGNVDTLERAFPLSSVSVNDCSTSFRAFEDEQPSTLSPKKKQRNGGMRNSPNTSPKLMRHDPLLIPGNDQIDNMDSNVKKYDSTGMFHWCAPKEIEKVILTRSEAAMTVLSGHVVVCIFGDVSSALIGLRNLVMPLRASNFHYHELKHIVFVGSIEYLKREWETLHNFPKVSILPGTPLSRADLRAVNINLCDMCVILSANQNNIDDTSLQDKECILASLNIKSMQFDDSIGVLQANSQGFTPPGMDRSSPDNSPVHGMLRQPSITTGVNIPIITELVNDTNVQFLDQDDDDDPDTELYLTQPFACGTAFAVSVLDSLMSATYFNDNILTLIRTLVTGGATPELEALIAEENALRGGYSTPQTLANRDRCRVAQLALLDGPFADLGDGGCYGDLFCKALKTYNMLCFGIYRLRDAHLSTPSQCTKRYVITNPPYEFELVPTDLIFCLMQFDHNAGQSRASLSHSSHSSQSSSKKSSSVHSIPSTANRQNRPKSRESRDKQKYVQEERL

With `CCn1c(CNC(=O)c2nc(Cl)cnc2N)[n+](CC)c2ccc(C(=O)N(C)CCN(C)C)cc21` the Efficacy (Rattus norvegicus [1]) was 39%, the Activity [2] was “Non-Toxic” and the hepatic extraction ratio at 1 µM [3] was less than 0.23. For the same compound, the Drug uptake [4] was 55%, the IC50 (Cytochrome P450 1A2) was greater than 50 µM and the ED50 (Rattus norvegicus [5]) was 0.1 µg/kg. For the same compound, the ED70 (Rattus norvegicus [5]) was 0.13 µg/kg, the IC50 [6] was greater than 800 µM and the MRT [7] was 18 min. It also gave an inhibition in vivo at 0.003 mg/kg (Lung [8]) of 33%, a Papp A→B [9] of less than 0.2 ×10⁻⁶ cm/s and an inhibition (M1 cell) of 81%. It also gave a hepatic extraction ratio at 6 h, 1 µM [10] of 0.2, an Activity (Rattus norvegicus [11]) of less than 25% and a Papp [12] of less than 0.02 ×10⁻⁶ cm/s. For the same compound, the Activity [13] was “Non-Toxic”, the Activity [14] was “Non-Toxic” and the IC50 (Cytochrome P450 2C19) was greater than 50 µM. For the same compound, the Activity (Rattus norvegicus [15]) was “inactive”, the inhibition in vivo at 0.0003 mg/kg (Lung [16]) was 27% and the IC50 (Cytochrome P450 2C9) was greater than 50 µM. The IC50 [17] was greater than 800 µM, the hepatic extraction ratio at 6 h, 1 µM [18] was 0.2 and the solubility [19] was greater than 2%. For the same compound, the IC50 (Cytochrome P450 3A4) was greater than 50 µM, the Papp B→A at 2 h, up to 300 µM [20] was less than 0.21 ×10⁻⁶ cm/s and the IC50 [21] was 0.0062 µM. For the same compound, the IC50 [22] was greater than 800 µM, the hepatic extraction ratio at 1 µM [23] was less than 0.23 and the QH [24] was 84%. The Activity [25] was “Non-Toxic”, the IC50 (Cytochrome P450 2D6) was greater than 50 µM and the logD [26] was 0.2. For the same compound, the inhibition [27] was 44% and the Activity [28] was “Non-Toxic”.
For `CCn1c(CNC(=O)c2nc(Cl)cnc2N)[n+](CC)c2ccc(OCC(=O)NCCOCP(C)(C)=O)cc21`, the Activity [2] was “Non-Toxic”, the hepatic extraction ratio at 1 µM [3] was less than 0.23 and the IC50 (Cytochrome P450 1A2) was greater than 50 µM. The IC50 [6] was greater than 800 µM, the MRT [7] was 18 min and the inhibition at 10 µM (CFTR) was less than 50%. The Papp A→B [9] was 0.6 ×10⁻⁶ cm/s, the hepatic extraction ratio at 6 h, 1 µM [10] was 0.17 and the Papp [12] was less than 0.05 ×10⁻⁶ cm/s. The Activity [13] was “Non-Toxic”, the inhibition at 10 µM (BK channel) was less than 50% and the Activity [14] was “Non-Toxic”. The IC50 (Cytochrome P450 2C19) was greater than 50 µM, the IC50 (Cytochrome P450 2C9) was greater than 50 µM and the IC50 [17] was greater than 800 µM. It also gave a hepatic extraction ratio at 6 h, 1 µM [18] of 0.28, a solubility [19] greater than 5% and an IC50 (Cytochrome P450 3A4) greater than 50 µM. For the same compound, the Papp B→A at 2 h, up to 300 µM [20] was 0.37 ×10⁻⁶ cm/s, the IC50 [22] was greater than 800 µM and the hepatic extraction ratio at 1 µM [23] was less than 0.23. For the same compound, the QH [24] was 79%, the Drug uptake [29] was 26% and the Activity [25] was “Non-Toxic”. For the same compound, the IC50 (Cytochrome P450 2D6) was greater than 50 µM, the inhibition at 10 µM (CaV3.1) was less than 50% and the logD [26] was 0.1. For the same compound, the bioavailability [30] was less than 5%, the Activity [28] was “Non-Toxic” and the inhibition at 10 µM (CaV3.2) was less than 50%.
